Laboratory results reported in PubChem BioAssay AID256 (DTP/NCI, 2004).
Inconclusive results and toxic doses are left out. Rule for the calls: active = survival T/C of 150% or more; inactive = T/C below 125% in these data.

System: CD2F1 mice, L1210 leukemia ip, survival T/C
Assay: NCI In Vivo Anticancer Drug Screen. Data for tumor model L1210 Leukemia (intraperitoneal) in CD2F1 (CDF1) mice
Details: endpoint: mean survival time, higher = longer survival
In short: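 In this screen, transplantable tumors were grown in mice given either the compound or its vehicle. Results were expressed as the treated measurement relative to the control measurement.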

[1] = dose: 100.0 mg/kg/injection, schedule: Q04DX003 (ip), vehicle: saline with Tween-80
[2] = dose: 200.0 mg/kg/injection, schedule: Q04DX003 (ip), vehicle: saline with Tween-80
[3] = dose: 400.0 mg/kg/injection, schedule: Q04DX003 (ip), vehicle: saline with Tween-80
[4] = dose: 100.0 mg/kg/injection, schedule: Q01DX001 (ip), vehicle: saline
[5] = dose: 200.0 mg/kg/injection, schedule: Q01DX001 (ip), vehicle: saline
[6] = dose: 100.0 mg/kg/injection, schedule: Q01DX001 (ip), vehicle: saline with Tween-80
[7] = dose: 400.0 mg/kg/injection, schedule: Q01DX001 (ip), vehicle: saline with Tween-80

Measured: T/C

O=C([O-])c1ccccc1[I+]c1ccccc1
inactive: dose: 100.0 mg/kg/injection, schedule: Q01DX001 (ip), vehicle: Klucel (hydroxypropylcellulose) (HPC) 107 % of control | dose: 100.0 mg/kg/injection, schedule: Q01DX009 (ip), vehicle: saline sonified 102 % of control | [1] 103 % of control | dose: 200.0 mg/kg/injection, schedule: Q01DX001 (ip), vehicle: Klucel (hydroxypropylcellulose) (HPC) 93 % of control | dose: 200.0 mg/kg/injection, schedule: Q01DX009 (ip), vehicle: saline sonified 94 % of control | [2] 101 % of control | dose: 400.0 mg/kg/injection, schedule: Q01DX001 (ip), vehicle: Klucel (hydroxypropylcellulose) (HPC) 111 % of control | dose: 400.0 mg/kg/injection, schedule: Q01DX009 (ip), vehicle: saline sonified 102 % of control | [3] 101 % of control

C=CCOc1cccc(OCC=C)c1C
inactive: dose: 100.0 mg/kg/injection, schedule: Q01DX009 (ip), vehicle: saline 102 % of control | dose: 200.0 mg/kg/injection, schedule: Q01DX009 (ip), vehicle: saline 100 % of control | dose: 400.0 mg/kg/injection, schedule: Q01DX009 (ip), vehicle: saline 100 % of control

CCOC(=O)C[S+](C)C
inactive: dose: 75.0 mg/kg/injection, schedule: Q01DX001 (ip), vehicle: saline 90 % of control | dose: 150.0 mg/kg/injection, schedule: Q01DX001 (ip), vehicle: saline 93 % of control

C#CCn1c2ccccc2c2ccccc21
inactive: dose: 100.0 mg/kg/injection, schedule: Q04DX003 (ip), vehicle: saline 106 % of control | dose: 200.0 mg/kg/injection, schedule: Q04DX003 (ip), vehicle: saline 98 % of control | dose: 400.0 mg/kg/injection, schedule: Q04DX003 (ip), vehicle: saline 104 % of control

COc1ccc2c(c1C)Cc1ccccc1C2=O
inactive: [1] 90 % of control | [2] 89 % of control | [3] 97 % of control

CS(=O)(=O)OCC(=O)NCCCCNC(=O)COS(C)(=O)=O
inactive: [4] 101 % of control | [5] 101 % of control

CSc1ccc(OC(=O)Nc2ccccc2F)cc1
inactive: [1] 101 % of control | [2] 112 % of control

CC(C)[NH-].CC(C)[NH-].O.O.[Cl][Pt+2][Cl]
inactive: dose: 1.5 mg/kg/injection, schedule: Q01DX009 (ip), vehicle: saline 118 % of control | dose: 1.57 mg/kg/injection, schedule: Q01DX009 (ip), vehicle: saline 115 % of control | [4] 112 % of control | [5] 90 % of control

O=C1Nc2ccccc2C1c1ccccc1 (stereo not drawn)
inactive: dose: 100.0 mg/kg/injection, schedule: Q04DX002 (ip), vehicle: saline with Tween-80 97 % of control | dose: 200.0 mg/kg/injection, schedule: Q04DX002 (ip), vehicle: saline with Tween-80 90 % of control

CCOc1ccc(NC(=S)N(C)C)cc1
inactive: dose: 50.0 mg/kg/injection, schedule: Q01DX009 (ip), vehicle: saline with Tween-80 94 % of control | dose: 100.0 mg/kg/injection, schedule: Q01DX009 (ip), vehicle: saline with Tween-80 94 % of control | [1] 89 % of control | dose: 200.0 mg/kg/injection, schedule: Q01DX009 (ip), vehicle: saline with Tween-80 90 % of control | [2] 96 % of control

C/C(=N/N(C)C)c1ccc2ccccc2c1
inactive: dose: 12.5 mg/kg/injection, schedule: Q01DX009 (ip), vehicle: saline with Tween-80 97 % of control | dose: 25.0 mg/kg/injection, schedule: Q01DX001 (ip), vehicle: saline with Tween-80 103 % of control | dose: 25.0 mg/kg/injection, schedule: Q01DX009 (ip), vehicle: saline with Tween-80 95 % of control | dose: 50.0 mg/kg/injection, schedule: Q01DX001 (ip), vehicle: saline with Tween-80 97 % of control | [6] 103 % of control

CCN(CC)c1ccc(N=Cc2cc(=O)n(C)c3ccccc23)cc1
inactive: [6] 102 % of control | [7] 91 % of control

C/C=C/C=C(\CC)C(=O)OCC
inactive: [6] 97 % of control | dose: 200.0 mg/kg/injection, schedule: Q01DX001 (ip), vehicle: saline with Tween-80 97 % of control | [7] 86 % of control

CC(C(O)c1ccc(Br)cc1)C(O)(C(F)(F)F)C(F)(F)F (stereo not drawn)
inactive: dose: 100.0 mg/kg/injection, schedule: Q04DX003 (ip), vehicle: other 113 % of control | dose: 200.0 mg/kg/injection, schedule: Q04DX003 (ip), vehicle: other 107 % of control | dose: 400.0 mg/kg/injection, schedule: Q04DX003 (ip), vehicle: other 100 % of control
